From patent US20100210478A1, “MAKE AND USE OF SURFACE MOLECULES OF VARIED DENSITIES” (priority 2006, published 2010)

How the values were obtained:
[1] = molecular target: T1, Src kinase, p60c-src (Homo sapiens, UniProt P12931); test: protein kinase reaction on peptide chip, phosphorylation detected by cy3-Pro-Q staining; assay type: biochemical; settings: pH7.5, 0.07 mM ATP, 25° C. for 30 min
T1 construct: purchased Invitrogen
Excerpt: FIG. 8 is a fluorescence image of a protein kinase reaction on pY-phosphopeptide chip. The experiment used Src kinase, p60c-src (Invitrogen). The chip included 23 known kinase substrates and their sequence variants, which vary in length and composition, a number of position and negative control sequences, and a few artificial peptide sequences. For each substrate peptide, at the phosphorylation position, Tyr (Y) in YEEI, for instance, three sequences are present, which are YEEI, pYEEI and AEEI. pY-containing sequences are directly synthesized which are reference sequences for the Y-containing sequences (as the substrate for kinase reactions) There are also background sites which contain no peptides. 8-22 redundancies were present. The peptide sequences shown in the image are YVPM (column 1) and the YEEIP (column 2) related sequences in double replicates. These sequences are given on right of the image. […] Kinase reaction conditions and phosphorylation detection were: 10× enzyme storage solution (0.5 mg/ml). 50 ul reaction buffer, pH7.5 (50 HEPES, 0.1 mM EDTA, and 0.01% Brij 35, 0.1 mg/ml BSA, 0.1% beta-mercaptoethanol, 0.07 mM ATP, 10 mM MgCl2), 25° C. for 30 min. The array was stained by filling the array with 200 ul cy3-Pro-Q solution (phosphate staining reagent), standing at room temperature for 20 min. The chip was then washed with 2 ml destaining buffer, pH 4.0 (50 mM […], 20% acetonitrile) as recommended by the vendor. The image was obtained from a regular microarray scanner (Axon GenPix 4000B) and shown using inverted intensities after background subtraction.
The signal intensities were analyzed using the following equation:
Relative phosphorylation efficiency: fP =(IY−IA)/(IpY−IA)
For a peptide, I is the signal intensity, IY is for Y-containing sequence which undergoes phosphorylation by kinase,IpY is for the synthetic phosphopeptide, IA is for the sequence containing Y→A substitution. By using the positive controls (pY-sequence) and negative controls (A-sequence or other non-phosphorylation amino acids) to derive relative phosphorylation efficiency, fp as fraction or percentage, the kinase reaction results were analyzed quantitatively. The method takes the advantage of addressable peptide array for reducing false positive readout and improves reliability of the data analysis.

[2] = test system: T2, peptide YEEIP
T2 sequence: YEEIP

[3] = test system: T3, peptide YEEI
T3 sequence: YEEI

[4] = test system: T4, peptide YEE
T4 sequence: YEE

[5] = test system: T5, peptide YVPM
T5 sequence: YVPM

phosphorylation by Src kinase (substrate reactivity) [1] | Substance | also measured
lowest reactivity | YVPM | 
phosphorylated | YEE | 
substrate of lower reactivity | YEEIP | 

Continued, substance first:

Substance | phosphorylation by Src kinase (substrate reactivity) [1] | also measured
YEEI | phosphorylated | 
Src kinase, p60c-src (Invitrogen) |  | phosphorylation on peptide chip, cy3-Pro-Q phosphate staining [2]: YEEIP is a substrate of lower reactivity; phosphorylation on peptide chip, cy3-Pro-Q phosphate staining [3]: YEE and YEEI are phosphorylated by the Sic kinase used; phosphorylation on peptide chip, cy3-Pro-Q phosphate staining [4]: YEE and YEEI are phosphorylated by the Sic kinase used; phosphorylation on peptide chip, cy3-Pro-Q phosphate staining [5]: YVPM has the lowest reactivity
